Read-outs that look alike come from different tables or passages of the source.
What was measured:
[1] = tested on: TNBS induced colitis model rat; experiment: Therapeutic effect in TNBS induced colitis model rat (intestinal permeability of FITC); assay type: in vivo; conditions: po, 72 h, SD rats, mean, read-out: Inhibition (%): suppressive rate on the intestinal permeability; for inhibition in vivo at 3 mg/kg: 3 mg/kg orally once a day for 3 days
Method: SD rats: 8-weeks-old male SLC (Japan SLC) were used. Under pentobarbital anesthesia, 300 μL of TNBS (28 mg/mL) which was prepared by 50% ethanol was administered at a point 8 cm from anus in large intestine to cause inflammation. To the solvent-treated group was administrated 300 μL of 50% ethanol. Animals were fasted for 48 hours prior to administration of TNBS. Test compounds (3 mg/kg or 10 mg/kg) prepared by 0.05% methylcellulose solution were orally administered once a day from next day, and it was administered for a total of 3 days. After administering for 3 days, 50 mg/kg FITC was orally administered at 4 hours after administration. Blood samples were collected from jugular vein under isoflurane anesthesia after 4 hours. The serum was centrifuged and fluorescence intensity was detected by PHERAstar FSX (BMG Labtech) to measure the concentration of FITC permeating into circulating blood through the mesentery. The suppressive rate on the intestinal permeability of test compounds was calculated based on the value of test compounds-free group as 0 and the value of TNBS-untreated group as 100.

[2] = Rat PK study: concentration of compounds in large intestine tissue and plasma; assay type: in vivo; conditions: male, 3 mg/kg oral, non-fasted SD rats; for Kp at 8 h: large intestine tissue / plasma, read-out: C/P: ratio of Colon and Plasma; for Cmax: read-out: Cmax: maximum plasma concentration
Method: Test compounds (3 mg/kg/5 mL) prepared by 0.05% methylcellulose were orally administered to non-fasted rats (SD, 8-weeks-old, male, Japan SLC). Blood samples were collected from jugular vein at 0.25, 0.5, 1, 2, 4, 6 and 8 hours after the administration. Laparotomy was performed under isoflurane anesthesia and large intestine was isolated. Collected distal large intestine (about 5 cm) was cut open, and then the large intestine was washed with saline on a dish. After washing, the large intestine was minced by a small scissors. About 150 mg thereof was moved to tube. To the tube was added 100 μL of saline, the mixture was homogenized using shake master (1000 rpm×30 minutes). Samples were prepared by the addition with quadruple volume of saline as final volume. The concentrations of the test compound in large intestine tissue and plasma were measured through a quantitative analysis using liquid chromatography-mass spectrometry (LC/MS).
• Cmax: maximum plasma concentration of test compounds in the case of oral administration (ng/mL) • AUC: area under the plasma test compound concentration-time curve (ng*min/mL) • Plasma: plasma test compound concentration after 8 hours (ng/ml) • Colon: concentrations of the test compound in large intestine tissue after 8 hours (ng/g) • C/P: ratio of the above Colon and Plasma

human PHD2184-418 = human PHD2184-418 (Homo sapiens (Human), UniProt Q9GZT9); experiment: PHD2 inhibitory test (fluorescence polarization); assay type: binding; conditions: human PHD2184-418, FITC-labeled HIF-1α556-574 substrate, 2 μM 2-oxoglutarate, 37° C. 60 minutes
Method: (1) Expression and Preparation of Human PHD2184-418
Human PHD2184-418 containing amino acid residues 184 to 418 of the protein represented by CAC42509 (GenBank accession ID) was expressed and prepared by the following method.
An expression construct of human PHD2184-418 containing N-terminal histidine tag was introduced into pET-30a (+) vector, and the sequence was confirmed. This vector was introduced into BL21 (DE3) strain and cultured at 37° C. in LB medium containing antibiotics. After culturing, a cell lysis solution was added to the cells, and then the cells were disrupted by sonication. The disrupted suspension was centrifuged and the supernatant was purified by Ni column to give human PHD2184-418.
Human HIF-1α556-574 (FITC-labeled HIF-1α556-574), containing N-terminal FITC-Ahx, containing amino acid residues 556 to 574 (partial peptide) of HIF-1α was used as a substrate. Using FITC-labeled HIF-1α556-574, the competitive inhibition between 2-oxoglutarate and test compounds (PHD inhibitor) was evaluated based on the change in fluorescence polarization by the following method.
An enzyme (human PHD2184-418) and the substrate were diluted with an assay buffer (pH 7.4) containing 10 mM HEPES, 150 mM NaCl, 10 μM MnCl2-4H2O, 2 μM 2-oxoglutarate and 0.05% Tween-20. Test compounds were diluted with DMSO. Test compounds and human PHD2184-418 was added to the 384-well plate (Corning, black, opaque bottom) in advance. The reaction was started by the addition of FITC-labeled HIF-1α556-574. After incubating at 37° C. for 60 minutes, fluorescence polarization (excitation wavelength: 470 nm, fluorescence wavelength: 530 nm) was measured by PHERAstar FSX (BMG Labtech). Fluorescence polarization of each well was measured, and human PHD2 binding inhibitory activity of test compounds was calculated based on the value of test compound-free group.

[3] = Rat PK study: concentration of compounds in large intestine tissue and plasma; assay type: in vivo; conditions: male, plasma, 3 mg/kg oral, non-fasted SD rats, read-out: AUC: area under the plasma test compound concentration-time curve (converted)
[4] = large intestine tissue (distal, colon), read-out: Colon: concentration in large intestine tissue after 8 hours
[5] = plasma, read-out: Plasma: plasma test compound concentration after 8 hours

human PHD2184-418, sequence (Q9GZT9 184-418): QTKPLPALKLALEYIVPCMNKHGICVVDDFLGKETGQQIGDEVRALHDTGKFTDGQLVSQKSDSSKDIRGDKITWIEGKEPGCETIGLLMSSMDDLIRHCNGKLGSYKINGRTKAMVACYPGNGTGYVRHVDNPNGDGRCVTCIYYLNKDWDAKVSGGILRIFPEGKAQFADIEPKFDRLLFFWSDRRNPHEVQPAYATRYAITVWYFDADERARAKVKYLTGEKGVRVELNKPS

Structure (SMILES)	concentration at 8 h [2, 4] [ng/g]	Kp at 8 h [2]	concentration at 8 h [2, 5] [ng/mL]	Cmax ([2]; plasma) [ng/mL]	IC50 (human PHD2184-418) [nM]	AUC [3] [ng·h/mL]	inhibition in vivo at 3 mg/kg [1] [%]	inhibition in vivo at 10 mg/kg ([1]; 10 mg/kg orally once a day for 3 days) [%]
O=C(O)c1cnn(-c2nc3c(ncn3Cc3ccc(O)cc3)c(=O)[nH]2)c1 [Example 29, 1-(9-(4-Hydroxybenzyl)-6-oxo-6,9-dihydro-1H-purin-2-yl)-1H-pyrazole-4-carboxylic acid]	646	> 646	< 1	< 1	370		86	
O=C(O)c1cnn(-c2nc3ncn(Cc4ccc(O)cc4)c3c(=O)[nH]2)c1 [Example 3, 1-(7-(4-Hydroxybenzyl)-6-oxo-6,7-dihydro-1H-purin-2-yl)-1H-pyrazole-4-carboxylic acid]	87	> 87	< 1	6	640	3.27	93	
O=C(O)c1ccc(Cn2cnc3nc(-n4cc(C(=O)O)cn4)[nH]c(=O)c32)cc1 [Example 12, 1-(7-(4-Carboxybenzyl)-6-oxo-6,7-dihydro-1H-purin-2-yl)-1H-pyrazole-4-carboxylic acid]	67	34	2	16	610	49.9	78	
COc1ccc(Cn2cnc3c(=O)[nH]c(-n4cc(C(=O)O)cn4)nc32)cc1 [Example 35, 1-(9-(4-Methoxybenzyl)-6-oxo-6,9-dihydro-1H-purin-2-yl)-1H-pyrazole-4-carboxylic acid]	11	> 11	< 1	< 1	590		81	
O=C(O)c1cnn(-c2nc3ncn(COCc4ccccc4)c3c(=O)[nH]2)c1 [Example 2, 1-(7-((Benzyloxy)methyl)-6-oxo-6,7-dihydro-1H-purin-2-yl)-1H-pyrazole-4-carboxylic acid]	188	> 188	< 1	3	640	0.833	51	
COc1ccc(Cn2cnc3nc(-n4cc(C(=O)O)cn4)[nH]c(=O)c32)cc1 [Example 11, 1-(7-(4-Methoxybenzyl)-6-oxo-6,7-dihydro-1H-purin-2-yl)-1H-pyrazole-4-carboxylic acid]				10		18.2	83	

More lines, in order of falling IC50 (human PHD2184-418), values ahead:

concentration at 8 h [2, 4] [ng/g]	Kp at 8 h [2]	concentration at 8 h [2, 5] [ng/mL]	Cmax ([2]; plasma) [ng/mL]	IC50 (human PHD2184-418) [nM]	AUC [3] [ng·h/mL]	Structure (SMILES)	inhibition in vivo at 3 mg/kg [1] [%]	inhibition in vivo at 10 mg/kg ([1]; 10 mg/kg orally once a day for 3 days) [%]
94	47	2	6	530	29.2	CS(=O)(=O)c1ccc(Cn2cnc3nc(-n4cc(C(=O)O)cn4)[nH]c(=O)c32)cc1 [Example 4, 1-(7-(4-(Methylsulfonyl)benzyl)-6-oxo-6,7-dihydro-1H-purin-2-yl)-1H-pyrazole-4-carboxylic acid]	66	
323	> 323	1	4	420	12.9	Cl.O=C(O)c1cnn(-c2nc3ncn(Cc4ccc(OCCN5CCOCC5)cc4)c3c(=O)[nH]2)c1 [Example 75, 1-(7-(4-(2-Morpholinoethoxy)benzyl)-6-oxo-6,7-dihydro-1H-purin-2-yl)-1H-pyrazole-4-carboxylic acid hydrochloride]	80	
109	36	3	11	90	46.3	O=C(O)c1cnn(-c2nc3ncn(Cc4ccc(-c5ccccc5)cc4)c3c(=O)[nH]2)c1 [Example 1, 1-(7-([1,1′-Biphenyl]-4-ylmethyl)-6-oxo-6,7-dihydro-1H-purin-2-yl)-1H-pyrazole-4-carboxylic acid]		54
